Earlier results in patent publication US7705151B2, “1,6 Naphthridines useful as inhibitors of SYK kinase” (Boehringer Ingelheim Pharmaceuticals, Inc., priority 2001, dated 2010).

Assays:
[1] = tested on: rodent mast cells
[2] = tested on: human mast cells

Compound: Cc1ccc2c(=O)c3ccccc3n(CCCN)c2c1C.O=C(O)C(=O)O [ER-27319, 3,4-dimethyl-10-(3-aminopropyl)-9-acridone oxalate]
- inhibition of anti-IgE mediated degranulation [1]: inhibit anti-IgE mediated degranulation
- inhibition of anti-IgE mediated degranulation [2]: inhibit anti-IgE mediated degranulation
